# Where “and” joins values, the source holds several entries; their conditions need not be identical. Identical values can stand only once.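 Tested at 5 concentrations; 48 h exposure; 96-well plates; endpoints linearly interpolated, else capped at highest concentration. Here, GI50 denotes the concentration required for 50% inhibition of growth. TGI: concentration producing complete growth inhibition.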
# Columns and labels:
# Assay in all cases: NCI-60 cell line screen, 48 h
# EKVX NSCLC = test system: EKVX NSCLC
# HOP-62 NSCLC = test system: HOP-62 NSCLC
# HT29 colon = test system: HT29 colon
# LOX IMVI melanoma = test system: LOX IMVI melanoma
# MALME-3M melanoma = test system: MALME-3M melanoma
# MDA-MB-231 breast = test system: MDA-MB-231 breast
# NCI-H23 lung = test system: NCI-H23 lung
# SN12C renal = test system: SN12C renal
# U251 CNS = test system: U251 CNS
# UACC-257 melanoma = test system: UACC-257 melanoma
SMILES,GI50 (EKVX NSCLC) [µM],TGI (EKVX NSCLC) [µM],GI50 (HOP-62 NSCLC),TGI (HOP-62 NSCLC),GI50 (HT29 colon),TGI (HT29 colon),GI50 (LOX IMVI melanoma),TGI (LOX IMVI melanoma),GI50 (MALME-3M melanoma),TGI (MALME-3M melanoma),GI50 (MDA-MB-231 breast),TGI (MDA-MB-231 breast),GI50 (NCI-H23 lung),TGI (NCI-H23 lung),GI50 (SN12C renal),TGI (SN12C renal),GI50 (U251 CNS),TGI (U251 CNS),GI50 (UACC-257 melanoma),TGI (UACC-257 melanoma)
CCCCCCCCCc1cc[n+](CC(=O)c2ccc([N+](=O)[O-])cc2)cc1,0.914,2.55,1.05 µM,2.39 µM,0.313 µM,1.29 µM,1.66 µM,3.19 µM,1.41 µM,3.03 µM,0.447 µM,1.7 µM,1.01 µM,2.56 µM,0.581 µM,1.9 µM,0.457 µM,1.76 µM,1.47 µM,3.2 µM
CC(C)CC(=O)Nc1n[nH]c2c1CN(C(=O)C1CCN(C)CC1)C2(C)C,1.14,> 10,1.2 µM,> 10 µM,0.79 µM,> 10 µM,0.209 µM,8.63 µM,6.95 µM,> 10 µM,0.894 µM,> 10 µM,0.352 µM,5.4 µM,1.27 µM,> 10 µM,0.439 µM,> 10 µM,1.19 µM,> 10 µM
COc1cc2c(cc1OC)C(OC)N(C)c1c-2ccc2cc3c(cc12)OCO3 (stereo not given),,15,,7.4 µM,,7.07 µM,,> 32.8 µM,,20 µM,,5.16 µM,,6.49 µM,,21.1 µM,,1.75 µM,,50.2 µM
COC1=CC(=O)C(OC)=C(OC)C1=O,15.9,29.8,16.2 µM,29.7 µM,22.5 µM,53.8 µM,12 µM,25.1 µM,18 µM,35.6 µM,2.33 µM,5.13 µM,14.9 µM,30 µM,15.1 µM,28.8 µM,15.1 µM,29.3 µM,14.2 µM,27.7 µM
C[C@@H](CN1CC(=O)NC(=O)C1)N1CC(=O)NC(=O)C1,,546,,328 µM,,950 µM,,729 µM,,1100 µM,,679 µM,,791 µM,,906 µM,,839 µM,,2390 µM
O=C(O)c1cc2ccccc2oc1=O,,> 100,,> 100 µM,,> 100 µM,,> 100 µM,,> 100 µM,,> 100 µM,,> 100 µM,,> 100 µM,,> 100 µM,,> 100 µM
COC(=O)c1c(O)c([N+](=O)[O-])cc2c1c1c(n2Cc2ccccc2)C(=O)c2ccccc2C1=O,22.9,82.9,21.3 µM,49.8 µM,18.9 µM,> 100 µM,> 100 µM,> 100 µM,23.4 µM,46 µM,19.9 µM,> 100 µM,21.9 µM,84.4 µM,25.5 µM,65.7 µM,31 µM,> 100 µM,41 µM,> 100 µM
Nc1ncnc2c1c(-c1cccc(OCc3ccccc3)c1)cn2C1CC(CN2CCC2)C1 (stereo not given),7.88,> 10,1.88 µM and 3.79 µM,8.33 µM and > 10 µM,0.0575 µM and 0.173 µM,1.84 µM and 2.05 µM,1.51 µM and 1.41 µM,3.02 µM and 3 µM,0.433 µM and 1.33 µM,1.96 µM and 3.04 µM,2.12 µM and 3.82 µM,6.14 µM and > 10 µM,4.62 µM and 7.36 µM,21.1 µM and > 10 µM,4.59 µM and 5.75 µM,18 µM and > 10 µM,1.82 µM and 3 µM,3.94 µM and > 10 µM,0.559 µM and 1.13 µM,2.1 µM and 2.41 µM
Cc1cc(O)c(C2=NN(c3ccc(S(N)(=O)=O)cc3)C(c3ccc(N(C)C)cc3)C2)c(C)c1Cl (stereo not given),13.3,36.1,18.6 µM,34.8 µM,10.9 µM,25.8 µM,14.8 µM,32 µM,14.8 µM,32.7 µM,11 µM,27.2 µM,17.7 µM,43.7 µM,9.62 µM,25 µM,11.8 µM,26.9 µM,26.3 µM,63.1 µM
C=C1c2[nH]c3ccccc3c2C2C(CC)C1CCN2C (stereo not given),,> 100,,> 100 µM,,> 100 µM,,> 100 µM,,56.5 µM,,> 100 µM,,> 100 µM,,> 100 µM,,> 100 µM,,95.6 µM
CN1C(=O)[C@@H](NC(=O)[C@H](CCC(F)(F)F)[C@H](CCC(F)(F)F)C(N)=O)N=C(c2ccccc2)c2ccccc21,68,> 100,> 100 µM,> 100 µM,> 100 µM,> 100 µM,> 100 µM,> 100 µM,> 100 µM,> 100 µM,43.7 µM,> 100 µM,> 100 µM,> 100 µM,> 100 µM,> 100 µM,> 100 µM,> 100 µM,67.7 µM,> 100 µM

# Reference: PubChem BioAssay (NCI)
